According to article PMC8490327 (Environment international, 2021):

Key:
[1] = Absolute quantitation of circulating PFAS; format: in vivo, mouse; conditions: for Absolute Plasma PFAS Levels: Fold Change PFAS Female vs. PFAS Male / Absolute Plasma PFAS Levels: PFAS Female Average Concentration / Absolute Plasma PFAS Levels: PFAS male Average Concentration / Absolute Plasma PFAS Levels: Overall Average Concentration: 12 weeks; for concentration at 12 weeks: C57BL/6J, mouse, plasma, oral; for Absolute Plasma PFAS Levels: PFAS Female Average Concentration: exposed females; for Absolute Plasma PFAS Levels: PFAS Female Average Concentration / Absolute Plasma PFAS Levels: PFAS male Average Concentration: 2 mg/L each in drinking water, n=3; for Absolute Plasma PFAS Levels: PFAS male Average Concentration: exposed males; for Absolute Plasma PFAS Levels: Overall Average Concentration: exposed mice of both sexes
[2] = cited from earlier work; for Median serum concentration: general U.S. population, NHANES 2003-2004, ref Nelson et al. 2010
human PPARα = conditions: ref Behr et al. 2020b, cited from earlier work; for PPARα activation compared to the positive control GW7647: even at concentrations 250 times greater than GW7647; for In vitro activation of human PPARα: reporter gene assays
[3] = Relative hepatic PFAS levels; format: in vivo, mouse; conditions: liver; for Relative Hepatic PFAS Levels: Fold Change PFAS Female vs. PFAS Male / Relative Hepatic PFAS Levels: Fold Change PFAS vs. Vehicle: 12 weeks of the 5-PFAS mixture, 2 mg/L each in drinking water; for Hepatic level, fold increase in PFAS-exposed females compared to vehicle / Hepatic level, fold increase in PFAS-exposed males compared to vehicle: 12 weeks
[4] = Relative plasma PFAS levels; format: in vivo, mouse; conditions: for Relative Plasma PFAS Levels: Fold Change PFAS Female vs. PFAS Male / Relative Plasma PFAS Levels: Fold Change PFAS vs. Vehicle: 12 weeks of the 5-PFAS mixture, 2 mg/L each in drinking water; for Plasma level, fold increase in PFAS-exposed females compared to vehicle / Plasma level, fold increase in PFAS-exposed males compared to vehicle: 12 weeks
[5] = ref Olsen et al. 2007; cited from earlier work
humans = conditions: cited from earlier work

Structure (SMILES) | Absolute Plasma PFAS Levels: Fold Change PFAS Female vs. PFAS Male [1] [fold] | concentration at 12 weeks ([1]; both) [ng/mL] | PPARα activation compared to the positive control GW7647 (human PPARα) | In vitro activation of human PPARα (human PPARα) | Relative Hepatic PFAS Levels: Fold Change PFAS Female vs. PFAS Male [3] [fold] | Relative Hepatic PFAS Levels: Fold Change PFAS vs. Vehicle [3] [fold] | Hepatic level, fold increase in PFAS-exposed females compared to vehicle [3] [fold] | Hepatic level, fold increase in PFAS-exposed males compared to vehicle [3] [fold] | Relative Plasma PFAS Levels: Fold Change PFAS Female vs. PFAS Male [4] [fold] | Relative Plasma PFAS Levels: Fold Change PFAS vs. Vehicle [4] [fold] | Plasma level, fold increase in PFAS-exposed females compared to vehicle [4] [fold] | Plasma level, fold increase in PFAS-exposed males compared to vehicle [4] [fold] | Absolute Plasma PFAS Levels: PFAS Female Average Concentration [1] [µg/mL] | Absolute Plasma PFAS Levels: PFAS male Average Concentration [1] [µg/mL] | Absolute Plasma PFAS Levels: Overall Average Concentration [1] [µg/mL] | Biological half-life in human serum [5] | Median serum concentration [2] [ng/mL] | other results
N.O=C(O)C(F)(OC(F)(F)C(F)(F)C(F)(F)F)C(F)(F)F (stereo not shown) [GenX] | 1.8 | 140 | 60-90% | capable of PPARα activation | – | – | – | – | – | – | – | – | – | – | – | – | – | concentration at 12 weeks [1]: ~100 ng/g; Serum level in a population exposed to PFAS-contaminated water ([2]; not detected above limit of detection, ref Kotlarz et al. 2020): < 2 ng/mL
O=S(=O)(O)C(F)(F)C(F)(F)C(F)(F)C(F)(F)C(F)(F)C(F)(F)C(F)(F)C(F)(F)F [PFOS, Perfluorooctane sulfonate] | 0.6 | – | – | capable of PPARα activation | 0.92 | 188.03 | 386.3 | 127.2 | 0.77 | 627.07 | 545.2 | 708.9 | 13.8 ± 2.3 | 22.5 ± 4.1 | 18.1 ± 5.6 | ~5 years | 21 | –
O=C(O)C(F)(F)C(F)(F)C(F)(F)C(F)(F)C(F)(F)C(F)(F)C(F)(F)F [PFOA, perfluorooctanoic acid] | 3.2 | 15400 | 60-90% | capable of PPARα activation | 2.43 | 1513.94 | 4693.4 | 571.9 | 1.96 | 10270.75 | 10883.6 | 6936.8 | 23.4 ± 9.0 | 7.3 ± 1.8 | – | around 4 years | 3.9 | Average serum concentration ([2]; populations occupationally exposed to PFOA, ref Sakr et al. 2007): 1.13 µg/mL; Predicted increase in total cholesterol from lowest to highest decile of PFOA (humans; exposed communities, ref Steenland et al. 2009): 11 to 12 mg/dL; Increase in total cholesterol associated with 1 ppm increase in serum PFOA (humans; occupationally exposed populations, ref Sakr et al. 2007): 1.06 mg/dL
O=C(O)C(F)(F)C(F)(F)C(F)(F)C(F)(F)C(F)(F)C(F)(F)C(F)(F)C(F)(F)F [PFNA, perfluorononanoic acid] | 0.8 | – | – | – | – | – | – | – | – | – | – | – | 33.7 ± 7.6 | 40.9 ± 10.6 | 37.3 ± 9.1 | – | – | –
O=S(=O)(O)C(F)(F)C(F)(F)C(F)(F)C(F)(F)C(F)(F)C(F)(F)F [PFHxS] | 0.9 | 23800 | – | capable of PPARα activation | 1.30 | 705.46 | 2035.7 | 387.1 | 0.96 | – | 6491 | 5414.2 | – | – | – | ~8.5 years | – | –
